This is an account of results in BindingDB's records for doi:10.1021/jm800588x (Eberhard Karls University Tuebingen, 2008).

Assay [1] concerns the target T1, Polyunsaturated fatty acid 5-lipoxygenase (Homo sapiens, UniProt P09917).
T1 sequence (P09917 whole entry): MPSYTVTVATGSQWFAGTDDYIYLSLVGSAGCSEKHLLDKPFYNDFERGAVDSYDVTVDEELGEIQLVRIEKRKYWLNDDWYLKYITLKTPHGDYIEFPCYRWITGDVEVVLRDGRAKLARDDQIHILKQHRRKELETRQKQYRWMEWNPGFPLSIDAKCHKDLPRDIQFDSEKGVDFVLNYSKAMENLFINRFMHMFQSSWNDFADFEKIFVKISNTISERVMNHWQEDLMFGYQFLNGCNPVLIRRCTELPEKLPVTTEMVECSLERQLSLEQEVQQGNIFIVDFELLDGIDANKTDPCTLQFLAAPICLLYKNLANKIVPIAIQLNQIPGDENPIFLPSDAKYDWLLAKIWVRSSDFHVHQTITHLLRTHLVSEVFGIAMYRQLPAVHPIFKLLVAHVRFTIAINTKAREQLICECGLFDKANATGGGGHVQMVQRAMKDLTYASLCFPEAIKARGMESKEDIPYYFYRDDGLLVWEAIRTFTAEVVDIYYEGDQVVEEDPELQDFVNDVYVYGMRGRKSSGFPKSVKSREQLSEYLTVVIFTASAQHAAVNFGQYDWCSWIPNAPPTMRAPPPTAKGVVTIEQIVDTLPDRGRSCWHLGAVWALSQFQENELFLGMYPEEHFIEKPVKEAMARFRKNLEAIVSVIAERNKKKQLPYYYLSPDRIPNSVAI
In words: Determination of 5-LO Product Formation in Intact Cells (EC50/IC50). Particulars: pH 7.4; 37 °C. The procedure: For assays of intact cells, 5000,000 freshly isolated PMNL cells were resuspended in PGC buffer. After preincubation with the test compounds for 15 min at RT, 5-LO product formation was started by addition of ionophore A23187 plus arachidonic acid. Formed 5-LO metabolites were extracted and analyzed by HPLC. 5-LO product formation is expressed as ng of 5-LO products per 1000,000 cells, which includes LTB4 and its all-trans isomers, and 5(S)-hydro(pero)xy-6-trans- 8,11,14-cis-eicosatetraenoic acid.

Assay [2] deals with T1, Polyunsaturated fatty acid 5-lipoxygenase. In words: Determination of 5-LO Product Formation in Cell-Free Systems (IC50). Particulars: pH 7.4; 37 °C. The protocol:
For determination of the activity of 5-LO in 100000g supernatants, aliquots of the supernatants were added to reaction mix, and were preincubated with the test compounds before arachidonic acid was added to start 5-LO product formation. Formed 5-LO metabolites were extracted and analyzed by HPLC. 5-LO product includes LTB4 and its all-trans isomers, and 5(S)-hydro(pero)xy-6-trans- 8,11,14-cis-eicosatetraenoic acid. IC50s are expressed as mean +/- SE, obtained from measurements at 4-5 different concentrations of test compounds, and determined using Graphpad Instat (Graphpad Software Inc., San Diego, CA). EC50/IC50 values were obtained from product formation in PMNL intact cells.

Molecules are shown by their SMILES.

By EC50 is commonly meant the concentration at which the effect is half-maximal. A lower EC50 goes with higher potency in that assay. `CCOC(=O)C(Sc1nc(Cl)cc(Nc2cccc(C)c2C)n1)c1ccccc1` (stereo not given) [ethyl 2-({4-chloro-6-[(2,3-dimethylphenyl)amino]pyrimidin-2-yl}sulfanyl)-2-phenylacetate]: the EC50 in assay [1] worked out at 1800 nM.

In assay [1], `CCOC(=O)C(Sc1nc(Cl)cc(Nc2ccc3ncccc3c2)n1)c1ccccc1` (stereo not given) [ethyl 2-{[4-chloro-6-(quinolin-6-ylamino)pyrimidin-2-yl]sulfanyl}-2-phenylacetate] displayed an EC50 of 1200 nM.

Turning to `CCCCCCC(Sc1nc(Cl)cc(Nc2ccc3ncccc3c2)n1)C(=O)OCC` (stereo not given) [ethyl 2-{[4-chloro-6-(quinolin-6-ylamino)pyrimidin-2-yl]sulfanyl}octanoate], a half-maximal effect in assay [2] (EC50) was put at 19000 nM.

On to `CCCCCCC(Sc1nc(Cl)cc(NCc2ccc3ncccc3c2)n1)C(=O)OCC` (stereo not given) [ethyl 2-({4-chloro-6-[(quinolin-6-ylmethyl)amino]pyrimidin-2-yl}sulfanyl)octanoate], for which, in assay [2], the response was half-maximal at 37000 nM (EC50).

In assay [1], `CCOC(=O)CSc1nc(Cl)cc(Nc2cccc3c2CCC3)n1` [ethyl 2-{[4-chloro-6-(2,3-dihydro-1H-inden-4-ylamino)pyrimidin-2-yl]sulfanyl}acetate] showed an EC50 of 3200 nM.

For `CCCCCCC(Sc1nc(Cl)cc(Nc2cccc(C)c2C)n1)C(=O)O` (stereo not given) [2-({4-chloro-6-[(2,3-dimethylphenyl)amino]pyrimidin-2-yl}sulfanyl)octanoic acid], the EC50 in assay [1] stood at 4100 nM.

As for `O=C(O)CSc1nc(Cl)cc(Nc2cccc3c2CCC3)n1` [2-{[4-chloro-6-(2,3-dihydro-1H-inden-4-ylamino)pyrimidin-2-yl]sulfanyl}acetic acid], in assay [1], the midpoint of the response, the EC50, lay at 3900 nM.

`CCCCCCC(Sc1nc(Cl)cc(Oc2ccc3ncccc3c2)n1)C(=O)OCC` (stereo not given) [ethyl 2-{[4-chloro-6-(quinolin-6-yloxy)pyrimidin-2-yl]sulfanyl}octanoate]: the EC50 in assay [1] was 1700 nM.

For the compound `CCOC(=O)CSc1nc(Cl)cc(Nc2ccc3ncccc3c2)n1` [ethyl 2-{[4-chloro-6-(quinolin-6-ylamino)pyrimidin-2-yl]sulfanyl}acetate], the EC50 in assay [1] came out at 2600 nM.

The compound `CCCCC(Sc1nc(Cl)cc(Nc2ccc3ncccc3c2)n1)C(=O)OCC` (stereo not given) [ethyl 2-{[4-chloro-6-(quinolin-6-ylamino)pyrimidin-2-yl]sulfanyl}hexanoate] came in with an EC50 in assay [1] of 1100 nM.
